Source: PubChem BioAssay AID857 (Vanderbilt High Throughput Screening Facility, 2007)
Calls of active or inactive are those of the source.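 Rule for the calls: active = a full or partial dose-response curve in at least two of three replicate runs; inactive = the rest.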

These compounds were tested against D(1B) dopamine receptor (Homo sapiens) (UniProt P21918) (assay: D5 receptor allosteric modulators, concentration-response – cell-based, HEK293, CRE-luciferase, luminescence, EC30 dopamine, selectivity assay for D1 allosteric modulator project, dose response (AID 857);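 note: HEK 293 cells expressing human D5 with a CRE-driven luciferase reporter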).
Sequence of D(1B) dopamine receptor (Homo sapiens) (P21918 whole entry, looked up): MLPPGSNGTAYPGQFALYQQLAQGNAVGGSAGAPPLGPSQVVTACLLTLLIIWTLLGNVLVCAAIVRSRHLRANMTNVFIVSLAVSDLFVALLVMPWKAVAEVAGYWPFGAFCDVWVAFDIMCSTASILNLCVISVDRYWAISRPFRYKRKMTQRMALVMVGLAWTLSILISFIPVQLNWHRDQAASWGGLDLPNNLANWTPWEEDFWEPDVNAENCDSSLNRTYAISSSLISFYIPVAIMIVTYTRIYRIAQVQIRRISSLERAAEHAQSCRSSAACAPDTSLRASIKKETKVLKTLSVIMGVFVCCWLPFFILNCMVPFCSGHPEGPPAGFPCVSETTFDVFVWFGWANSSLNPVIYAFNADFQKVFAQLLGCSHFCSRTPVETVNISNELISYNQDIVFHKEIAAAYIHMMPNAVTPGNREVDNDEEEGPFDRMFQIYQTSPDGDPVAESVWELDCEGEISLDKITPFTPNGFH
`Cc1cc(=O)c2n(Cc3ccc(Cl)cc3)nc[n+]2[nH]1` was tested, and the outcome was “inactive”. For `COC(=O)/C(=C1/Oc2cc3c(cc2S1)OCO3)C(F)(F)F`, the outcome was “inactive”. `CCCn1c(SCC(=O)Nc2sc(C)c(C)c2C(=O)OCC)nc2c1c(=O)n(C)c(=O)n2C` was tested, and the outcome was “inactive”. In the case of `N#Cc1nc(-c2cccs2)oc1NCC1CCCO1` (stereo unspecified), the outcome is reported as “inactive”. `COC(=O)c1ccc(CSc2nc3c(cnn3-c3ccc(F)cc3)c(=O)[nH]2)o1` was tested, and the outcome was “inactive”. With `CC1(C)Cc2c(C#N)c(N3CCCC3)nc(-c3ccco3)c2CO1` the outcome was “inactive”. For `Cc1ccc(-n2cnnn2)c2cccnc12`, the outcome was “inactive”. For `N#Cc1cn(-c2ccccc2)nc1-c1ccccc1`, the outcome was “inactive”. For `COc1ccc(Cc2nnc(NC(=O)c3c(-c4ccccc4)noc3C)s2)cc1`, the outcome was “inactive”. For `Cc1ccc(Cn2c(-n3nc(C)cc3C)nc3c2c(=O)[nH]c(=O)n3C)cc1`, the outcome was “inactive”. `COC(=O)c1ccc(OCCn2cnc3ccccc3c2=O)cc1` was tested, and the outcome was “inactive”. For `N#Cc1nc(-c2ccccc2Cl)oc1N1CCOCC1`, the outcome was “inactive”. For `CCOC(=O)c1sc(NC(=O)CSc2nncs2)c(C(=O)OCC)c1C`, the outcome was “inactive”. For `COc1ncnc2c1N[C@@](C)(O)c1c(F)c(F)c(F)c(F)c1S2`, the outcome was “inactive”. In the case of `CCOC(=O)c1c(-c2cccs2)csc1NC(=O)CSc1ncn[nH]1`, the outcome is reported as “inactive”. In the case of `CCOC(=O)c1c(NC(=O)CSc2nnc(CN3CCOCC3)n2C)sc2c1CCCC2`, the outcome is reported as “inactive”. For `c1ccc(C2CC(c3ccccc3)n3ncnc3N2)cc1` (stereo unspecified), the outcome was “inactive”. With `O=C(CCSc1nc2ccccc2o1)N1CCOCC1` the outcome was “inactive”. For `CCn1c(SCc2cccnc2)nc2c1c(=O)n(C)c(=O)n2C`, the outcome was “inactive”. `CSC1=NCCN1C(=O)c1ccc(Br)o1` was tested, and the outcome was “inactive”. With `CCC(C)Sc1nc2c(c(=O)n1C)SC(C)C2` (stereo unspecified) the outcome was “inactive”. In the case of `COC(=O)c1ccc(COc2nc(C)cc(C)c2C#N)o1`, the outcome is reported as “inactive”. For `COc1ccc(S(=O)(=O)N(C)c2ccc(C(=O)N3CCOCC3)cc2)cc1OC`, the outcome was “inactive”. In the case of `CCc1nn(CCCC(=O)N2CCc3ccccc3C2)c(=O)c2cc3occc3n12`, the outcome is reported as “inactive”. With `O=c1c2ccccc2nc(SCc2cccc(F)c2)n1Cc1ccco1` the outcome was “inactive”. In the case of `COc1ccc(C2=NOC(C(=O)NC3CCCCC3)C2)cc1OC` (stereo unspecified), the outcome is reported as “inactive”. In the case of `CCOc1ccccc1C1NC(=O)NC(C)=C1C(=O)OC1CCCCC1` (stereo unspecified), the outcome is reported as “inactive”. For `CCc1nc(N)c(C#N)c(-c2ccncc2)c1C`, the outcome was “inactive”. For `CCN=C1SC(C(N)=O)CC(=O)N1CC` (stereo unspecified), the outcome was “inactive”. For `CC(C)Oc1ccccc1C1CC(=O)Nc2cc3c(cc21)OCCO3` (stereo unspecified), the outcome was “inactive”. In the case of `Cn1c(SCc2ccon2)nc2ccccc2c1=O`, the outcome is reported as “inactive”. `COc1nc(NCc2ccc(Cl)cc2)nc(OC)n1` was tested, and the outcome was “inactive”. With `COc1ccc(N2C(=O)C3CCCN3C2c2ccccc2)cc1Cl` (stereo unspecified) the outcome was “inactive”. With `CSc1ccccc1NC(=O)c1onc(C)c1Cl` the outcome was “inactive”. For `CCCC(=O)Nc1ccc(NC(=O)C2CC2)cn1`, the outcome was “inactive”. With `COc1nc(C)ccc1-c1noc(-c2ccncc2)n1` the outcome was “inactive”. With `CC1CCCCN1C(=O)CSc1nc(C2CC2)nc2c1cnn2-c1ccccc1` (stereo unspecified) the outcome was “inactive”. For `CCOC(=O)N1CCN(S(=O)(=O)c2ccc3c(c2)CCN3C(=O)C2CCC2)CC1`, the outcome was “inactive”. With `COc1ccc(-c2c3c(=O)n(C)c(=O)n(C)c3cn2-c2ccccc2)cc1` the outcome was “inactive”. `NC(=O)c1cc(-c2ccccc2)nc(N2CCCCCC2)n1` was tested, and the outcome was “inactive”. With `COC(=O)c1ccccc1NC(=O)c1ccc2c(c1)OCCO2` the outcome was “inactive”. With `Cc1ccc(-c2cc(-c3ccc(C)o3)nc(N)c2C#N)cc1` the outcome was “inactive”. `Cc1cc2cc(CN(CCN3CCOCC3)C(=O)Nc3ccccc3F)c(=O)[nH]c2cc1C` was tested, and the outcome was “inactive”. `CC(C)Cc1nc(N2CCN(C(=O)C(C)C)CC2)c(C#N)c2c1CCC2` was tested, and the outcome was “inactive”. With `CCOC(=O)c1nn(-c2ccccc2C)c(=O)c(C#N)c1C` the outcome was “inactive”. For `CC(C)OC(=O)CSc1nnc(-c2cnccn2)n1-c1ccc(Cl)cc1`, the outcome was “inactive”. With `Cc1cc(=O)oc2cc(OCC(=O)NCCc3nc4ccccc4[nH]3)ccc12` the outcome was “inactive”. For `CCOC(=O)c1[nH]c2ccccc2c1NC(=O)C(C)(C)C`, the outcome was “inactive”. With `CCOC(=O)c1c(NC(=O)c2cccs2)sc(C)c1CC` the outcome was “inactive”. `N#CC1=C(N)Oc2n[nH]c(-c3cccs3)c2C1c1ccsc1` (stereo unspecified) was tested, and the outcome was “inactive”. With `CCCCn1c(=NC(=O)c2ccco2)c(C(=O)OCC)cc2c(=O)n3ccccc3nc21` the outcome was “inactive”. With `COc1cc2[nH]c(=S)n(C3CCCC3)c(=O)c2cc1OC` the outcome was “inactive”. For `Cn1c(=O)c2[nH]c(NCC3CCCO3)nc2n(-c2ccccc2)c1=O` (stereo unspecified), the outcome was “inactive”. `Cc1noc(C)c1CSc1ncnc2ccccc12` was tested, and the outcome was “inactive”. `COc1ccc(Cl)cc1C(=O)CSc1nnnn1C1CCCC1` was tested, and the EC50 was 661 nM. `Cc1cc(SCC(=O)N2CCC(c3noc4ccc(F)cc34)CC2)nc2ccccc12` was tested, and the outcome was “inactive”. With `O=C(CSc1nnc(COc2ccc(F)cc2)o1)N1c2ccccc2CCc2ccccc21` the outcome was “inactive”. `CCc1ccc2[nH]c(=O)c(CN(Cc3nnnn3C3CCCC3)C3CCCCC3)cc2c1` was tested, and the outcome was “inactive”. For `Cc1cc(O)c(C=Nc2cccc(Cl)c2)c(=O)o1`, the outcome was “inactive”. With `CCSC(C)CC1C/C(=N/O)c2c(CC)noc2C1` (stereo unspecified) the outcome was “inactive”. With `COc1ccc2c(c1)C(=O)N(c1ccccc1OC)C(=O)C2(C)C` the outcome was “inactive”. `Cc1cc(C)c(C#N)c(SCc2ccc(C#N)cc2)n1` was tested, and the outcome was “inactive”. In the case of `COc1ccc(CCNS(=O)(=O)c2ccc3c(c2)OCCO3)cc1OC`, the outcome is reported as “inactive”. `COCCCNc1nc2ccccc2nc1NS(=O)(=O)c1cccs1` was tested, and the outcome was “inactive”. `N#CC1=C(N)Oc2nc(-c3ccccc3)[nH]c2C1c1cccnc1` (stereo unspecified) was tested, and the outcome was “inactive”. `CCSc1nc2c(c(=O)n1Cc1ccccc1)SC(C)C2` (stereo unspecified) was tested, and the outcome was “inactive”. `c1ccc(COc2nsnc2N2CCOCC2)cc1` was tested, and the outcome was “inactive”. `CCCCn1c(O)c(C(C)=NCc2ccc(F)cc2)c(=O)[nH]c1=O` was tested, and the outcome was “inactive”. In the case of `O=C1C(Cl)=C(NCC2CCCO2)C(=O)N1C1CCCCC1` (stereo unspecified), the outcome is reported as “inactive”. In the case of `Nc1nc(SCC(=O)OCc2ccccc2)[nH]c(=O)c1NC(=O)c1ccco1`, the outcome is reported as “inactive”. For `COC(=O)C(C)C1Sc2ccccc2NC1=O` (stereo unspecified), the outcome was “inactive”. With `CSc1oc(-c2ccco2)nc1S(=O)(=O)c1ccc(F)cc1` the outcome was “inactive”. With `Cn1c(=O)c2c(SCc3ccccc3)nc(-c3ccco3)nc2n(C)c1=O` the outcome was “inactive”. `CCCCn1c(=NC(=O)c2cccnc2)c(C(=O)OCC)cc2c(=O)n3ccccc3nc21` gave an EC50 of 1070 nM. `CC(=NCc1cccnc1)C1=C(O)c2ccccc2C1=O` was tested, and the outcome was “inactive”. With `O=C(c1cccn2c(=O)c3cc(Cl)ccc3nc12)N1CCN(Cc2ccc3c(c2)OCO3)CC1` the outcome was “inactive”. `C=CCn1c(=O)c2c(C)c(C)sc2n2c(Nc3ccc(OC)cc3)nnc12` was tested, and the outcome was “inactive”. With `O=S(=O)(c1ccccc1)c1nc(-c2ccco2)oc1N1CCCCCC1` the outcome was “inactive”. With `NC(=O)NC(=O)Nc1ccccc1Cl` the outcome was “inactive”. In the case of `Cc1cc(-c2cccs2)c2c(n1)sc1c(=O)[nH]c(=O)[nH]c12`, the outcome is reported as “inactive”. `CCOC(=O)CSc1nc2c(sc(=S)n2Cc2ccco2)c(=O)n1-c1ccccc1` was tested, and the outcome was “inactive”. `COc1cc2c(cc1OC)C(C(=O)Nc1ccc3c(c1)OCCO3)C1c3ccccc3CCN1C2=O` (stereo unspecified) was tested, and the outcome was “inactive”. `COc1ccc(NC(=O)c2ccc(NS(=O)(=O)c3c(C)noc3C)cc2)cc1OC` was tested, and the outcome was “inactive”. `Cc1cc(C)nc(SCC(=O)N2CCCCC2)n1` was tested, and the outcome was “inactive”. In the case of `N#CC1=C(N)n2c(s/c(=C\c3ccco3)c2=O)=C(C#N)C1c1ccco1` (stereo unspecified), the outcome is reported as “inactive”. `COc1cccc(-c2nn3c(-c4cc(C)[nH]n4)nnc3s2)c1` was tested, and the outcome was “inactive”. For `O=C(CCNS(=O)(=O)c1ccc2c(c1)CCC(=O)N2)NCc1ccc2c(c1)OCO2`, the outcome was “inactive”. In the case of `O=C1COc2ccccc2N1Cc1ccccc1Cl`, the outcome is reported as “inactive”. In the case of `C/C(=C\C(=O)c1ccccc1)Nc1cccc(O)c1`, the outcome is reported as “inactive”. For `COc1ccc(-c2noc(CCC(N)=O)n2)cc1OC`, the outcome was “inactive”. In the case of `O=C(c1ccco1)N1CCN(c2nc(C3CC3)nc3sc4c(c23)CCCC4)CC1`, the outcome is reported as “inactive”. In the case of `COc1c(S(=O)(=O)n2nc(C)cc2C)ccc(Cl)c1Cl`, the outcome is reported as “inactive”. For `COc1ccc(S(=O)(=O)N2CCSC2c2ccc(OC)c(OC)c2)cc1` (stereo unspecified), the outcome was “inactive”. With `CCOC(=O)c1c(C)c(C(=O)NCc2ccc3c(c2)OCO3)c(C)n1C` the outcome was “inactive”. In the case of `CCn1c(=O)c(C(=O)NCc2cccnc2)c(O)c2ccccc21`, the outcome is reported as “inactive”. With `CCn1nc(C(=O)NC2=NCCS2)c2ccccc2c1=O` the outcome was “inactive”. In the case of `NC(=O)COc1ccc(NC(=O)OCc2ccccc2)cc1`, the outcome is reported as “inactive”. For `CCCn1c(=NC(C)=O)c(C(=O)OCC)cc2c(=O)n3ccccc3nc21`, the outcome was “inactive”. For `Cn1cccc1C1NC(=O)c2c(sc3c2CCC(C(C)(C)C)C3)N1` (stereo unspecified), the outcome was “inactive”. In the case of `COc1ccc(C2CC(=O)Nc3ccccc3S2(=O)=O)cc1OC` (stereo unspecified), the outcome is reported as “inactive”. With `COc1ccc(-c2coc3cc(O)ccc3c2=O)cc1OC` the outcome was “inactive”. `N#CCSc1ncnc2sc3c(c12)CCC3` was tested, and the outcome was “inactive”. In the case of `CC(C)Cn1c(-c2cccs2)nc2nc3ccccc3nc21`, the outcome is reported as “inactive”. For `C=CCn1c(=S)[nH]c2nc3c(cc2c1=O)CCCC3`, the outcome was “inactive”. In the case of `COc1ccc(CCN(C)C(=O)C2CCCN(Cc3ccc(OC)c(OC)c3)C2)cc1OC` (stereo unspecified), the outcome is reported as “inactive”. For `CCC(Sc1nc(=O)cc(N)n1CCc1ccccc1)C(=O)Nc1ccccc1C#N` (stereo unspecified), the outcome was “inactive”. With `N#Cc1cc2ccccc2nc1SCC(=O)Nc1ccc(S(=O)(=O)N2CCCC2)cc1` the outcome was “inactive”. In the case of `CSc1nncc(-c2ccc(F)c(F)c2)n1`, the outcome is reported as “inactive”. For `CNc1nc(C)c(C(=O)OCC(=O)OC)s1`, the outcome was “inactive”. `Cc1ccc(-n2c(SCC(=O)OC(C)C)nnc2-c2cnccn2)cc1` was tested, and the outcome was “inactive”. `CC(=O)N=c1sc2nc3ccccc3nc2n1N(C(C)=O)C(C)=O` was tested, and the outcome was “inactive”.
